Assay results taken from ChEMBL document CHEMBL1201862, “PubChem BioAssay data set” (2004).
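Each compound was tested at five concentrations against cells in 96-well plates for 48 hours. GI50 is the concentration that inhibits growth by half.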 The source made the active and inactive calls. Rule as the data show it: active = GI50 up to about 1.1 µM and inactive = higher.

Legend:
Experiment in all cases: NCI anticancer screen, dose series, 48 h
SF-539 = tested on: SF-539
CCRF-CEM = tested on: CCRF-CEM
OVCAR-8 = tested on: OVCAR-8
786-0 = tested on: 786-0
NCI-H23 = tested on: NCI-H23
RXF 393 = tested on: RXF 393
COLO 205 = tested on: COLO 205
HCC 2998 = tested on: HCC 2998
OVCAR-3 = tested on: OVCAR-3
HCT-15 = tested on: HCT-15
SK-MEL-5 = tested on: SK-MEL-5
TK-10 = tested on: TK-10
NCI/ADR-RES = tested on: NCI/ADR-RES
MOLT-4 = tested on: MOLT-4
Malme-3M = tested on: Malme-3M
IGROV-1 = tested on: IGROV-1
NCI-H460 = tested on: NCI-H460
BT-549 = tested on: BT-549
SK-OV-3 = tested on: SK-OV-3
OVCAR-5 = tested on: OVCAR-5
MDA-MB-435 = tested on: MDA-MB-435
KM12 = tested on: KM12
RPMI-8226 = tested on: RPMI-8226
UO-31 = tested on: UO-31
PC-3 = tested on: PC-3
ACHN = tested on: ACHN
A498 = tested on: A498
LOX IMVI = tested on: LOX IMVI
SF-295 = tested on: SF-295
K562 = tested on: K562
MDA-MB-231 = tested on: MDA-MB-231
SK-MEL-28 = tested on: SK-MEL-28
EKVX = tested on: EKVX
NCI-H226 = tested on: NCI-H226
HT-29 = tested on: HT-29
NCI-H522 = tested on: NCI-H522
UACC-62 = tested on: UACC-62
SN12C = tested on: SN12C
SK-MEL-2 = tested on: SK-MEL-2
OVCAR-4 = tested on: OVCAR-4
HOP-62 = tested on: HOP-62
DU-145 = tested on: DU-145
MCF7 = tested on: MCF7
T47D = tested on: T47D
HL-60 = tested on: HL-60
SNB-75 = tested on: SNB-75
SR = tested on: SR
A549 = tested on: A549
SW-620 = tested on: SW-620
U-251 = tested on: U-251
M14 = tested on: M14
MDA-N = tested on: MDA-N
SF-268 = tested on: SF-268
SNB-19 = tested on: SNB-19
Hs-578T = tested on: Hs-578T
HOP-92 = tested on: HOP-92
CAKI-1 = tested on: CAKI-1
HCT-116 = tested on: HCT-116
UACC-257 = tested on: UACC-257

Cn1c(S)nc(C(N)=O)c1N
GI50 (SF-539): > 100 µM (inactive) | GI50 (CCRF-CEM): > 100 µM (inactive) | GI50 (OVCAR-8): > 100 µM (inactive) | GI50 (786-0): > 100 µM (inactive) | GI50 (NCI-H23): > 100 µM (inactive) | GI50 (RXF 393): > 100 µM (inactive) | GI50 (COLO 205): > 100 µM (inactive) | GI50 (HCC 2998): > 100 µM (inactive) | GI50 (OVCAR-3): > 100 µM (inactive) | GI50 (HCT-15): > 100 µM | GI50 (SK-MEL-5): > 100 µM (inactive) | GI50 (TK-10): > 100 µM (inactive) | GI50 (NCI/ADR-RES): > 100 µM (inactive) | GI50 (MOLT-4): > 100 µM (inactive) | GI50 (Malme-3M): > 100 µM (inactive) | GI50 (IGROV-1): > 100 µM (inactive) | GI50 (NCI-H460): > 100 µM (inactive) | GI50 (BT-549): > 100 µM (inactive) | GI50 (SK-OV-3): > 100 µM (inactive) | GI50 (OVCAR-5): > 100 µM (inactive) | GI50 (MDA-MB-435): > 100 µM (inactive) | GI50 (KM12): > 100 µM (inactive) | GI50 (RPMI-8226): > 100 µM (inactive) | GI50 (UO-31): > 100 µM (inactive) | GI50 (PC-3): > 100 µM (inactive) | GI50 (ACHN): > 100 µM (inactive) | GI50 (A498): > 100 µM (inactive) | GI50 (LOX IMVI): > 100 µM (inactive) | GI50 (SF-295): > 100 µM (inactive) | GI50 (K562): > 100 µM (inactive) | GI50 (MDA-MB-231): > 100 µM (inactive) | GI50 (SK-MEL-28): > 100 µM (inactive) | GI50 (EKVX): > 100 µM (inactive) | GI50 (NCI-H226): > 100 µM (inactive) | GI50 (HT-29): > 100 µM (inactive) | GI50 (NCI-H522): > 100 µM (inactive) | GI50 (UACC-62): > 100 µM (inactive) | GI50 (SN12C): > 100 µM (inactive) | GI50 (SK-MEL-2): > 100 µM (inactive) | GI50 (OVCAR-4): > 100 µM (inactive) | GI50 (HOP-62): > 100 µM (inactive) | GI50 (DU-145): > 100 µM (inactive) | GI50 (MCF7): > 100 µM (inactive) | GI50 (T47D): 72.4 µM (inactive) | GI50 (HL-60): > 100 µM (inactive) | GI50 (SNB-75): > 100 µM (inactive) | GI50 (SR): > 100 µM (inactive) | GI50 (A549): > 100 µM (inactive) | GI50 (SW-620): > 100 µM (inactive) | GI50 (U-251): > 100 µM (inactive) | GI50 (M14): > 100 µM (inactive) | GI50 (MDA-N): > 100 µM (inactive) | GI50 (SF-268): > 100 µM (inactive) | GI50 (SNB-19): > 100 µM (inactive) | GI50 (Hs-578T): > 100 µM (inactive)

CC(=O)OC12OC(C)(C3C(=O)N(c4ccccc4)C(=O)C31)N(c1ccccc1)C2=O (stereo not drawn)
GI50 (HOP-92): 45.7 µM (inactive) | GI50 (SF-539): > 100 µM (inactive) | GI50 (CCRF-CEM): > 100 µM (inactive) | GI50 (OVCAR-8): > 100 µM (inactive) | GI50 (786-0): > 100 µM (inactive) | GI50 (CAKI-1): > 100 µM (inactive) | GI50 (NCI-H23): > 100 µM (inactive) | GI50 (RXF 393): > 100 µM (inactive) | GI50 (COLO 205): > 100 µM (inactive) | GI50 (HCC 2998): 51.6 µM (inactive) | GI50 (OVCAR-3): > 100 µM (inactive) | GI50 (HCT-15): > 100 µM | GI50 (SK-MEL-5): > 100 µM (inactive) | GI50 (TK-10): > 100 µM (inactive) | GI50 (NCI/ADR-RES): > 100 µM (inactive) | GI50 (MOLT-4): > 100 µM (inactive) | GI50 (Malme-3M): > 100 µM (inactive) | GI50 (IGROV-1): > 100 µM (inactive) | GI50 (NCI-H460): > 100 µM (inactive) | GI50 (BT-549): > 100 µM (inactive) | GI50 (SK-OV-3): > 100 µM (inactive) | GI50 (OVCAR-5): > 100 µM (inactive) | GI50 (MDA-MB-435): > 100 µM (inactive) | GI50 (KM12): > 100 µM (inactive) | GI50 (UO-31): > 100 µM (inactive) | GI50 (PC-3): 69.3 µM (inactive) | GI50 (ACHN): > 100 µM (inactive) | GI50 (LOX IMVI): > 100 µM (inactive) | GI50 (HCT-116): > 100 µM (inactive) | GI50 (SF-295): > 100 µM (inactive) | GI50 (K562): > 100 µM (inactive) | GI50 (MDA-MB-231): > 100 µM (inactive) | GI50 (SK-MEL-28): > 100 µM (inactive) | GI50 (EKVX): 84.7 µM (inactive) | GI50 (UACC-257): 16.7 µM (inactive) | GI50 (NCI-H226): > 100 µM (inactive) | GI50 (HT-29): > 100 µM (inactive) | GI50 (NCI-H522): > 100 µM (inactive) | GI50 (UACC-62): > 100 µM (inactive) | GI50 (SN12C): > 100 µM (inactive) | GI50 (SK-MEL-2): > 100 µM (inactive) | GI50 (OVCAR-4): 51.4 µM (inactive) | GI50 (HOP-62): > 100 µM (inactive) | GI50 (DU-145): > 100 µM (inactive) | GI50 (MCF7): > 100 µM (inactive) | GI50 (T47D): > 100 µM (inactive) | GI50 (HL-60): > 100 µM (inactive) | GI50 (SNB-75): > 100 µM (inactive) | GI50 (SR): > 100 µM (inactive) | GI50 (A549): > 100 µM (inactive) | GI50 (SW-620): > 100 µM (inactive) | GI50 (U-251): > 100 µM (inactive) | GI50 (M14): > 100 µM (inactive) | GI50 (MDA-N): > 100 µM (inactive) | GI50 (SF-268): > 100 µM (inactive) | GI50 (SNB-19): > 100 µM (inactive) | GI50 (Hs-578T): > 100 µM (inactive)

CCN(CC)CCNc1ccc([N+](=O)[O-])c2nc3ccccc3c(N)c12
GI50 (HOP-92): 0.755 µM (active) | GI50 (SF-539): 0.446 µM (active) | GI50 (CCRF-CEM): 0.251 µM (active) | GI50 (OVCAR-8): 0.361 µM (active) | GI50 (786-0): 0.361 µM (active) | GI50 (CAKI-1): 1.23 µM (inactive) | GI50 (NCI-H23): 0.485 µM (active) | GI50 (RXF 393): 0.254 µM (active) | GI50 (COLO 205): 0.162 µM (active) | GI50 (OVCAR-3): 0.701 µM (active) | GI50 (HCT-15): 0.41 µM | GI50 (SK-MEL-5): 0.166 µM (active) | GI50 (TK-10): 0.685 µM (active) | GI50 (NCI/ADR-RES): 0.401 µM (active) | GI50 (MOLT-4): 0.223 µM (active) | GI50 (IGROV-1): 0.377 µM (active) | GI50 (NCI-H460): 0.291 µM (active) | GI50 (BT-549): 0.791 µM (active) | GI50 (SK-OV-3): 0.726 µM (active) | GI50 (OVCAR-5): 0.621 µM (active) | GI50 (MDA-MB-435): 0.481 µM (active) | GI50 (KM12): 0.293 µM (active) | GI50 (RPMI-8226): 0.311 µM (active) | GI50 (UO-31): 0.597 µM (active) | GI50 (PC-3): 0.372 µM (active) | GI50 (ACHN): 0.155 µM (active) | GI50 (A498): 1.22 µM (inactive) | GI50 (LOX IMVI): 0.333 µM (active) | GI50 (HCT-116): 0.127 µM (active) | GI50 (SF-295): 0.498 µM (active) | GI50 (K562): 0.316 µM (active) | GI50 (MDA-MB-231): 0.41 µM (active) | GI50 (SK-MEL-28): 0.998 µM (active) | GI50 (EKVX): 0.428 µM (active) | GI50 (UACC-257): 0.931 µM (active) | GI50 (NCI-H226): 1.35 µM (inactive) | GI50 (HT-29): 0.359 µM (active) | GI50 (UACC-62): 1.01 µM (active) | GI50 (SN12C): 0.441 µM (active) | GI50 (SK-MEL-2): 0.214 µM (active) | GI50 (OVCAR-4): 0.422 µM (active) | GI50 (HOP-62): 1.48 µM (inactive) | GI50 (DU-145): 2.94 µM (inactive) | GI50 (MCF7): 0.364 µM (active) | GI50 (T47D): 0.662 µM (active) | GI50 (HL-60): 0.297 µM (active) | GI50 (SNB-75): 1.17 µM (inactive) | GI50 (SR): 0.243 µM (active) | GI50 (A549): 0.385 µM (active) | GI50 (SW-620): 0.208 µM (active) | GI50 (U-251): 0.682 µM (active) | GI50 (M14): 0.456 µM (active) | GI50 (MDA-N): 0.504 µM (active) | GI50 (SF-268): 0.482 µM (active) | GI50 (SNB-19): 0.615 µM (active) | GI50 (Hs-578T): 0.175 µM (active)
